Assay results: patent publication US10561735B2, “Solid formulations of liquid biologically active agents” (Paladin Labs Inc., priority 2004, dated 2020)
In brackets after ≈: the same amount, converted by molar mass.

Legend:
[1] = Reconstitution of lyophilized cake: time, appearance, visual stability (no precipitation or phase separation); format: physicochemical; conditions: PVP-PLA 90 mg/mL, 75 mM sodium phosphate buffer pH 7.4
Description: PVP-PDLLA (POLYMER 1 and POLYMER 2) samples were dissolved in mixtures of water and various amounts of tert-butyl alcohol (TBA). Propofol is then added to the PVP-PDLLA solution. Water is then added to the TBA/PVP-PDLLA/propofol solution to the desired final volume. Final TBA concentration in these solutions was 10-30%. Drug loading levels, % w/w of propofol/(propofol PVP-PDLLA), were also varied from 5, 7, 8, 10, 12, 15 and 20%. Solutions were then frozen in a dry ice/acetone bath and lyophilized for at least 24 hours.
PVP-PDLLA (POLYMER 1) is dissolved directly in water at concentrations between 100 to 350 mg/mL. Propofol is added to the PVP-PDLLA solution and mixed until a homogenous solution is obtained. The solution is then diluted to a concentration of 1% w/v of propofol. 7, 10 and 12% w/w drug loading levels were tested. All solutions were then filtered using 0.2 μm sterile filters and frozen in acetone/dry ice bath or in −80° C. freezer for at least 4 hours before being lyophilized for 48 hours. Solid lyophilized cakes of 7, 10 and 12% w/w were reconstituted by adding water for injection.
PVP-PDLLA (lot # POLYMER 1, POLYMER 2, POLYMER 3, POLYMER 4 and POLYMER 5) is dissolved directly in 100 mM sodium phosphate buffer, pH 7.4, at concentrations between 100 to 350 mg/mL. Propofol is added to the PVP-PDLLA solution and mixed until a homogenous solution is obtained. […]

[2] = tested on: humans or animals; conditions: cited from earlier work
[3] = room temperature; cited from earlier work

SMILES	appearance after reconstitution by addition of water [1]	half life ([2]; in vivo) [min]	time to hypnosis from the start of an administration ([2]; intravenous injection of a therapeutic dose) [s]	aqueous solubility [3] [mg/mL]
OCCOc1ccccc1 [2-phenoxyethanol]	Clear solutions			
CC(C)c1cccc(C(C)C)c1O [Propofol, 2,6-bis-(1-methylethyl)phenol]		10 to 15	≤ 40	~0.154 (≈ 864 µM)
Cc1ccc2ccccc2n1 [quinaldine]	Clear solutions			
